Data published in patent US20050209157A1, “Short bioactive peptides and methods for their use” (priority 2001, published 2005).
Converted amounts (≈) assume the structure as drawn. No end group written: not given here.

Tests used:
[1] = tested on: human red blood cells (RBC); assay: in vitro; type: cell-based; settings: human red blood cells
[2] = in vitro; settings: human, WI38 normal lung fibroblast cells, Peptide toxicity WI-38 LD/50, human fibroblast cells
[3] = tested on: human leukocyte (WBC) cells; assay: Stimulation and proliferation of leukocytes, Alamar Blue; type: cell-based; settings: 48 hours
Procedure: In vitro viability of human leukocyte cells in the presence of different peptides at different concentrations was determined by an Alamar Blue protocol. Alamar Blue (Promega, Madison, Wis.) is an indicator dye, formulated to measure quantitatively the proliferation and cytotoxicity of the cells. The dye consists of an oxidation-reduction (redox) indicator that yields a calorimetric change and a fluorescent signal in response to cellular metabolic activity.
Assay protocol: Blood from a human was drawn and centrifuged at 1500 rpm for 15 minutes at room temperature. The buffy coat cells at the plasma-red blood cell interface were aspirated. Buffy coat cells (mainly lymphocyte cells) were then transferred into 15 ml centrifuge tubes containing 5 ml of RPMI-1640 medium+10% Fetal Bovine Serum (Gibco, Grand Island, N.Y.). Additional medium was added to the tubes to bring the volume up to 10 ml. The buffy coat suspension was then carefully layered on 5 ml of Histopaque (Sigma Chemical Co., St. Louis, Mo.) and centrifuged at 1500 rpm for 30 minutes at room temperature. The interface which is mostly PBMCs (peripheral mononuclear cells) was aspirated and transferred to a 15 ml conical centrifuge tube and, resuspended in 2 ml cold RPMI-1640 and brought up to 15 ml with cold RPMI-1640 medium. Cells were centrifuged at 1500 rpm for 10 minutes. The supernatant was then aspirated and discarded. The cell pellet was re-suspended in 1 ml of cold RPMI 1640 and brought up to 15 ml with RPMI medium. This step was repeated twice, except that in the last step, the cells were resuspended with 1 ml of cold RPMI-1640 medium and cell counts were performed with a hemocytometer according to the Sigma cell culture catalogue.
Pokewood mitogen was used as a control along with positive and negative controls. Negative control cells were killed with 70% methanol. Positive (+) control cells were incubated in RPMI medium (untreated). […] of AlamarBlue was added to the cells, and readings were taken after 24 hours, 48 hours, 72 hours, and 96 hours using a fluorimeter (excitation 544/transmission 590 nm).
Calculations were performed using the following formula. The peptide treated sample and positive control were adjusted for negative control. [formula]
Using the protocol described immediately above, about 100-150 peptides were screened for their stimulatory and/or inhibitory actions upon the growth of human leukocyte (“WBC”) cells as compared to the growth of untreated positive control cells.
The Alamar Blue stain used in the protocol permeates both cell and nuclear membranes, and is metabolized in the mitochondria to cause the change in color. The resulting fluorometric response is therefore a result of total mitochondrial activity caused by cell stimulation and/or mitosis (cell proliferation).

Row | Compound | Peptide toxicity RBC LD/50 [1] | CC50 at 24 h [2] [µg/mL] | Peptide treated cell activity Percent stimulation relative to control ([3]; 0.1 ug/ml) [%] | Peptide treated cell activity Percent stimulation relative to control ([3]; 1 ug/ml) [%] | Peptide treated cell activity Percent stimulation relative to control ([3]; 10 ug/ml) [%] | Peptide treated cell activity Percent stimulation relative to control ([3]; 100 ug/ml) [%] | Peptide treated cell activity Percent stimulation relative to control ([3]; 500 ug/ml) [%]
1 | CC(C)C[C@H](NC(=O)[C@H](C)NC(=O)[C@H](CC(C)C)NC(=O)[C@H](CCCCN)NC(=O)[C@H](C)NC(=O)[C@H](CC(C)C)NC(=O)[C@H](CCCCN)NC(=O)[C@H](CCCCN)NC(=O)[C@H](C)NC(=O)[C@H](CC(C)C)NC(=O)[C@H](CCCCN)NC(=O)[C@H](C)NC(=O)[C@H](CC(C)C)NC(=O)[C@H](CCCCN)NC(=O)[C@H](CCCCN)NC(=O)[C@H](C)NC(=O)[C@@H](N)Cc1ccccc1)C(N)=O [compound 17] | 200 | 8 (≈ 4.31 µM) | 82 | 76 | 61 | 18 | 16
2 | FALKALKKLKKALKKAL-NH2 [compound 115] | 780 | 130 | 93 | 92 | 37 | 72 | 29
3 | FALALKALKKLKKALKKAL-NH2 [compound 12] | 125 | 37 | 108 | 110 | 99 | 30 | 23
4 | FAKKLAKLAKKLLAL-NH2 [compound 20] | 350 | 12 | 79 | 82 | 78 | 37 | 36
5 | MPKWKVFKKIEKVGRNIRNGIVKAGPAIAVLGEAKALG-NH2 [compound 5] | >1000 | 950 | 111 | 115 | 118 | 116 | 101
6 | FALALKALKKLAKKLKKLAKKAL-NH2 [compound 10] | 60 | 24 | 117 | 104 | 99 | 27 | 27
